Test system: female SD rats
Test: Test Example 1: urethral baseline pressure (intraurethral pressure) in rats after oral administration
Format: in vivo, rat
Conditions: 3 mg/kg oral, 11-week-old female SD rats, n=8, mean for 30 minutes after 8 hours from administration, Student's t-test vs distilled water group, FIG. 1
Procedure: The compounds of the present invention and comparative compounds were individually orally administered in an amount of 3 mg/kg to 11-week-old female SD rats (test substance-administration groups, n=8 for each group), and distilled water was orally administered as the control to 11-week-old female SD rats (solvent administration group, n=8). As the comparative compounds, 4-(1-methylpiperidyl) 2,2-diphenyl-2-propoxyacetate (Comparative Example 1), 4-(1-methylpiperidyl) 2,2-diphenyl-2-(propoxy-1,1,2,2,3,3,3-d7)acetate (Comparative Example 2), which is a deuterated compound of Comparative Example 1, and 4-piperidyl 2,2-diphenyl-2-propoxyacetate (Comparative Example 3), synthesized according to Patent Literatures 1 to 3, respectively, were used.
Seven and a half hours after administration, each rat was anesthetized by intraperitoneal administration of 1.2 g/kg of urethane. Thereafter, the ureters and the area between the urethra and the bladder were ligated, and a vesical fistula catheter and a catheter for measuring intraurethral pressure were inserted and indwelled in the bladder and the urethra. The catheter for measuring intraurethral pressure was inserted from the external urethral orifice. The other end of each catheter was connected to a corresponding pressure transducer branched into two directions via a corresponding three-way stopcock, and the remaining connecting portion of each three-way stopcock was connected to a corresponding syringe set in a continuous injection device. Intravesical pressure and intraurethral pressure were recorded via a polygraph connected with the pressure transducers. […] Physiological saline was injected into the urethra using the micro syringe pump connected to the urethra at 3 mL/hr, and the changes in intraurethral pressure associated with the rhythmic contraction were recorded.
The mean values of the urethral baseline pressure for the solvent administration group and the test substance-administration groups were calculated, and the results were indicated as mean±SE. […]

Structure (SMILES) | urethral baseline pressure (effect versus solvent administration group)
CCCOC(C(=O)OC1CCN(C)CC1)(c1ccccc1)c1ccccc1 [Comparative Example 1, 4-(1-methylpiperidyl) 2,2-diphenyl-2-propoxyacetate] | did not have a significant effect on urethral baseline pressure
[2H]C([2H])([2H])C([2H])([2H])C([2H])([2H])OC(C(=O)OC1CCN(C)CC1)(c1ccccc1)c1ccccc1 [Comparative Example 2, 4-(1-methylpiperidyl) 2,2-diphenyl-2-(propoxy-1,1,2,2,3,3,3-d7)acetate] | did not have a significant effect on urethral baseline pressure
CCCOC(C(=O)OC1CCNCC1)(c1ccccc1)c1ccccc1 [Comparative Example 3, 4-piperidyl 2,2-diphenyl-2-propoxyacetate] | did not have a significant effect on urethral baseline pressure

Reference: patent US9505717B2, “Acetic acid ester compound or salt thereof” (Taiho Pharmaceutical Co., Ltd., priority 2012, dated 2016)
